Measurements: patent US20250034109A1, “SALTS, COCRYSTALS, PHARMACEUTICAL COMPOSITIONS THEREOF, AND METHODS OF TREATMENT INVOLVING THE SAME” (Servier Pharmaceuticals LLC, priority 2023, published 2025)

Key:
[1] = tested on: mutant IDH1; details: biochemical and cellular assays; cited from earlier work
[2] = Solubility of the drug substance (general statement); type: physicochemical
[3] = tested on: mutant IDH2; details: biochemical and cellular assays; cited from earlier work

SMILES: C[C@@H](Nc1nc(N[C@H](C)C(F)(F)F)nc(-c2cccc(Cl)n2)n1)C(F)(F)F [Compound 1, 6-(6-chloropyridin-2-yl)-N^2,N^4-bis((R)-1,1,1-trifluoropropan-2-yl)-1,3,5-triazine-2,4-diamine]
- inhibitor of mutant IDH1 protein [1]: inhibitor
- solubility [2]: poorly soluble
- inhibitor of mutant IDH2 protein [3]: inhibitor
